The record followed here is patent US20070196866A1, “Modulators of ion channel trpa1” (IRM LLC, priority 2004, published 2007).

Each structure is given as a SMILES string.

A short description of assay [1]: Nociceptive behavior after intraplantar injection in mice. The following applies: wildtype mice, intraplantar, five minutes post-injection; cinnamaldehyde 5 mM and 16.4 mM. The format is in vivo.
The target of assay [2] is T1, mTRPA1 (Mus musculus, UniProt Q8BLA8).
T1 construct: expressed in transfected cells; host or cells: CHO cells
T1 sequence (Q8BLA8 whole entry): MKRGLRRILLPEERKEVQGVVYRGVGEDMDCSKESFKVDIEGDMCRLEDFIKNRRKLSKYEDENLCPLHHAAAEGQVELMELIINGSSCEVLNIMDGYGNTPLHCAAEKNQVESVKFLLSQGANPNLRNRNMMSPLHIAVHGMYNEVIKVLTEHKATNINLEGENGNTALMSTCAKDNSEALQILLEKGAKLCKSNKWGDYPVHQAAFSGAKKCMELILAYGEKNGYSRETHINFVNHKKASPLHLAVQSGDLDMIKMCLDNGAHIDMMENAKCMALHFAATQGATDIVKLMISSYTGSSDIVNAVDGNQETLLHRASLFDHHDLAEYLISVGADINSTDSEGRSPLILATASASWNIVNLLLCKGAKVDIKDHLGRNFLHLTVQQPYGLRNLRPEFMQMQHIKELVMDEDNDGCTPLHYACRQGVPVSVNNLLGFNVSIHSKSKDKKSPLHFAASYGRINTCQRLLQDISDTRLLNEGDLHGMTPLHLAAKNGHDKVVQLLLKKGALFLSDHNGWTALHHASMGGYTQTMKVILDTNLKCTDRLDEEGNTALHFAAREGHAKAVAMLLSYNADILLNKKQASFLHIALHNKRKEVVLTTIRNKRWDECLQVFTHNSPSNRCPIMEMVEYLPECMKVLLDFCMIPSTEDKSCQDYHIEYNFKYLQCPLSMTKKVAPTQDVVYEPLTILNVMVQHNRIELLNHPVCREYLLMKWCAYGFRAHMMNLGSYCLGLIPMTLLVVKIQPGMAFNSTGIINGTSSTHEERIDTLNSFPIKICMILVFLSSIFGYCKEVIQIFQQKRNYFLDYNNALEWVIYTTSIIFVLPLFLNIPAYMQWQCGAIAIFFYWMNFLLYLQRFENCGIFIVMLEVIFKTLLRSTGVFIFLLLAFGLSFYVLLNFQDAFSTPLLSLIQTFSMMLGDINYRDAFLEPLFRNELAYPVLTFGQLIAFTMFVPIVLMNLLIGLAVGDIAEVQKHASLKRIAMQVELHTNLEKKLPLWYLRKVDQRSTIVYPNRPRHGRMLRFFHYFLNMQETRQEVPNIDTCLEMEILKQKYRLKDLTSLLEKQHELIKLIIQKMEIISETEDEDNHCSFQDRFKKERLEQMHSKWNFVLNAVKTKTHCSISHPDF
Put plainly: Screen of cinnamaldehyde-like compounds in heterologous expression systems. The class given is cell-based. The following applies: even in millimolar concentrations.

For the next assay, the target named is T2, mouse TRPA1 (Mus musculus, UniProt Q8BLA8).
T2 construct: expressed in transfected cells; host or cells: CHO cells
T2 sequence (Q8BLA8 whole entry): as above
Kind of assay: FLIPR intracellular calcium assay, mouse TRPA1-expressing CHO cells. The class given is cell-based.

The subject of assay [3] is TRPV1. Put plainly: FLIPR calcium assay, TRPV1-expressing CHO cells. The format is cell-based. The settings on record: 2 mM. The text has this:
We then tested these compounds against TRPM8 and TRPV1.

Assay [4] deals with T1, mTRPA1. Kind of assay: Ratiometric calcium imaging of CHO cells expressing mTRPA1. The class given is cell-based.
The test system of a further assay is naïve CHO cells. Put plainly: Calcium response of naive CHO cells. The settings on record: alone. The class given is cell-based. The text has this:
Another downstream effect of PLC activity is the generation of Diacylglycerol (DAG). Therefore, we tested if l-Oleoyl-2-acetyl-sn-glycerol (OAG, a cell permeable analog of DAG) could activate TRPA1. […] OAG alone gives no response in naïve CHO cells. DAG can be converted to poly-unsaturated fatty acid (PUFAs) such as arachidonic acid (AA). […] AA can be converted to numerous metabolites, including prostaglandins. […] However, such a compound named 5,8,11,14-Eicosatetraynoic acid (ETYA) activated TRPA1- expressing CHO cells. Therefore, AA metabolism is not required for the activation of TRPA1.

Assay [5] deals with TRPV1. Kind of assay: Calcium imaging of TRPV1-expressing CHO cells. The class given is cell-based.
Another assay deals with adult rat DRG neurons. Kind of assay: Calcium imaging of cultured adult rat DRG neurons. The class given is cell-based. The text has this:
To further test this hypothesis, and to find out if the pungent compounds described above activate TRPA1 specifically, we performed calcium imaging of adult rat DRG neurons in response to cold, menthol, cinnamaldehyde, allyl isothiocyanate, and bradykinin. […] To a large extent, cinnamaldehyde and menthol activated mutually exclusive populations of cold-responsive neurons, as our model would predict. Allyl isothiocyanate appeared less specific as it activated 63% of the cold-responsive population (including a large overlap with menthol) and 12% of the cold-insensitive population. We have used 1.6 times the EC50 values of cinnamaldehyde and allyl isothiocyanate to enable us to directly compare DRG response profiles to these compounds. […] There were no significant differences in profiles of cinnamaldehyde and allyl isothiocyanate between cultures in the presence of 1 and 100 ng/ml of NGF.
In addition to the pungent sensory compounds, we have shown that BK can activate TRPA1.
To test if garlic extracts and allicin specifically activate TRPA1 in native neurons, we performed calcium imaging of adult rat DRG neurons. […] Addition of allicin or garlic extract to cultured rat DRG neurons activated a specific population of neurons.

Assay [6] has as its target T3, TRPA1 (Homo sapiens, UniProt O75762). Put plainly: FLIPR dose response, hTRPA1. The class given is cell-based. Also noted: expressed in transfected cells.
Target sequence in this assay (O75762 whole entry): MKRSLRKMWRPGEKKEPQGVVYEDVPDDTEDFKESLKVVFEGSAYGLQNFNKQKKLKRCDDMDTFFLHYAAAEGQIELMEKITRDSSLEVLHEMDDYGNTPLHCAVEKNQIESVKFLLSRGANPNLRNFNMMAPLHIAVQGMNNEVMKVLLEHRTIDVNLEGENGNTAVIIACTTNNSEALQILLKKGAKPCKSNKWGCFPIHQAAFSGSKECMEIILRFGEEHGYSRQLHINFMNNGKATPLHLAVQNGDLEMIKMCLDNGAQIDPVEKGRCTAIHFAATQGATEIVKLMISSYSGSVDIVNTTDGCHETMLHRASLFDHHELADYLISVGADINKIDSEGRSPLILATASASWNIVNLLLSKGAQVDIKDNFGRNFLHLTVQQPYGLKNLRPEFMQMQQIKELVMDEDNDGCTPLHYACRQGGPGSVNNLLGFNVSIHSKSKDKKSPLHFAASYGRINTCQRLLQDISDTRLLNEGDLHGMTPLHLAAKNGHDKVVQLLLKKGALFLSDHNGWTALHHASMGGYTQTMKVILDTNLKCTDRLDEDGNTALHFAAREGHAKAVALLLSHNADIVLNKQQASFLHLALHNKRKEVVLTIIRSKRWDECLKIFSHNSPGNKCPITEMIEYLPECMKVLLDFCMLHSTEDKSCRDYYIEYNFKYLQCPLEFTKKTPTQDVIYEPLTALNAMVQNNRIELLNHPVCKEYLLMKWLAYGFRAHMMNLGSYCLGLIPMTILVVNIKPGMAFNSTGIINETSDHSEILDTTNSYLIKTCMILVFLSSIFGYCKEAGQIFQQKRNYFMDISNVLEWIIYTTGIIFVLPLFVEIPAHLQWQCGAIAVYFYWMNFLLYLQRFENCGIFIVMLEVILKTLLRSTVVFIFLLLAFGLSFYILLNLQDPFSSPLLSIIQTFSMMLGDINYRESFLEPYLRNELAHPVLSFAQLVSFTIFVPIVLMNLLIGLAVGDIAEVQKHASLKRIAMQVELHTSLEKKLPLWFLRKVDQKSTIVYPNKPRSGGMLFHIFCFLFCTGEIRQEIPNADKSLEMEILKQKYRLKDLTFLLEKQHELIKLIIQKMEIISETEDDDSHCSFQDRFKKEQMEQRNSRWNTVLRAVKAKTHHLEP
Assay [7] deals with T3, TRPA1. Kind of assay: Electrophysiological recording of TRPA1-expressing oocytes. The format is cell-based. More on the design: expressed in transfected cells; host or cells: oocytes. The settings on record: 1 μM.
Target sequence in this assay (O75762 whole entry, species assumed): as the sequence (O75762 whole entry) above

In the case of `O=C(O)C=Cc1ccccc1` [Cinnamic acid, reference compound], the “licking and shaking of the injected hindpaw” value in assay [1] is reported as “not observed”. The “activation of mTRPA1” value at mTRPA1 [2] was “did not activate”.

For `COC(=O)c1ccccc1O` [Methyl salicylate], the “specificity to mTRPA1 when tested against TRPM8 and TRPV1” value at mouse TRPA1 (600 μM) is “specific to mTRPA1”. In addition, the “increase in intracellular calcium upon application” value at mouse TRPA1 (FLIPR, mTRPA1 CHO cells) is on record as “sharp increase in intracellular calcium”. Also, in the assay on TRPV1 [3], the “activation of TRPV1-expressing cells, relative to TRPV1 response from saturating amounts of capsaicin” value stood at 25%.

Take `CCCCCCCC/C=C\CCCCCCCC(=O)OC[C@H](CO)OC(C)=O` [OAG, l-Oleoyl-2-acetyl-sn-glycerol]: on mTRPA1 [4], the “activation of mTRPA1/TRPA1-expressing CHO cells” value was “robust response”. Moreover, the “response in naïve CHO cells” value in the assay on naïve CHO cells is on record as “no response”.

For `C=CCS[S+]([O-])CC=C` (stereo not drawn) [allicin, diallyl disulfide oxide], the EC50 is 1320 nM on mouse TRPA1 (FLIPR, mTRPA1, read-out: concentration for half maximal activation (EC50)) and 1910 nM on TRPA1 [6]. The “calcium response of TRPA1-expressing CHO cells” value at mTRPA1 [4] is “immediate and strong calcium response”. In the assay with TRPV1 [5], the “calcium response of TRPV1-expressing CHO cells” value is “immediate and strong calcium response”. Moreover, the “response of capsaicin-insensitive neurons” value in the assay with adult rat DRG neurons is on record as “never responded”. Moreover, the “DRG neuron population activated at high concentrations” value in the assay with adult rat DRG neurons (dilution 1:50 for garlic, 100 μM allicin) was “activated the majority of capsaicin-sensitive DRG neurons”. For the same compound, the “DRG neuron population activated at low concentrations” value in the assay on adult rat DRG neurons (dilution 1:500 for garlic, 10 μM allicin) is recorded as “activated only the cinnamaldehyde-sensitive neurons”. Further, the “activation of TRPA1-expressing oocytes” value at TRPA1 [7] was “able to activate”.
